Earlier results in patent US5420288A, “Electroluminescent device comprising oxadiazole compounds luminescent material, oxadiazole compounds for the device, and method of producing oxadiazole compounds” (Ricoh Company, Ltd., priority 1992, dated 1995).

Conditions: conventional materials, background

Structure (SMILES): CC(C)(C)c1ccc(-c2nnc(-c3ccc(-c4ccccc4)cc3)o2)cc1 [2-(4-tert-butylphenyl)-5-(p-biphenyl)-1,3,4-oxadiazole]
- film-forming properties / crystallization / stability: easily crystallized and lacks in the stability
